Settings: for log10 BCF / log10 biotransformation half-life (days): fish

NNC(=O)c1ccccc1[N+](=O)[O-]
melting point: 124 °C

NC(=O)c1ccc(N)nc1
melting point: 246 °C

O=C1c2c(O)cccc2Cc2cccc(O)c21
melting point: 179 °C

CCCC(C1CCCCC1)C1CCCCC1
boiling point: 293 °C | melting point: -10.5 °C

CCCCC(CC)COC(=O)C=CC(=O)OCC(CC)CCCC (centres undefined)
ready biodegradability: readily biodegradable

N#CC=Cc1ccco1
melting point: 38 °C

CC[C@@H]1CCC[C@H]1C
boiling point: 125 °C | log10 vapour pressure (mmHg): 1.3 | melting point: -106 °C

ClCCCI
boiling point: 171 °C

NCCc1ccc(O)c(O)c1
melting point: 128 °C

NNC(=O)c1ccc(Br)cc1
melting point: 166 °C

CCCCCCCC/C=C\CCCCCCCCCCCC(=O)O
melting point: 33.5 °C

C=C[C@@]1(C)C=C2CC[C@@H]3[C@](C)(CCC[C@@]3(C)C(=O)O)[C@H]2CC1
melting point: 218 °C | log10 BCF: 1.92

CN(C)CC(O)c1ccc(O)c(O)c1 (centres undefined)
melting point: 149 °C

CC(=O)OCCCOC(C)=O
boiling point: 210 °C

O=C1OCc2c(Cl)c(Cl)c(Cl)c(Cl)c21
log10 Koc (L/kg): 3.3 | log10 vapour pressure (mmHg): -7.65 | melting point: 210 °C

CC(=O)O[C@H]1[C@H]2O[C@]23[C@@H]2CC[C@]4(O)C[C@@H](O)CC[C@]4(C)[C@H]2CC[C@]3(C)[C@H]1c1ccc(=O)oc1
melting point: 260 °C

O=C(c1ccccc1)C(Cl)Cl
boiling point: 249 °C | melting point: 20.5 °C

COc1cccc(Cl)c1Cl
melting point: 32 °C

COC(=O)CCC#N
boiling point: 211 °C

CCN(CC)CCOc1ccc2nc(N(C)C)sc2c1.Cl.Cl
melting point: 242 °C

CC(C)/N=c1/cc2n(-c3ccc(Cl)cc3)c3ccccc3nc-2cc1Nc1ccc(Cl)cc1
melting point: 211 °C

O=Cc1c[nH]c2ccccc12
melting point: 196 °C

C=C(NC(C)=O)C(=O)CCC(N)=O
melting point: 130 °C

O=C(O)C1C2CCC(O2)C1C(=O)O (centres undefined)
log10 Koc (L/kg): 2.09 | log10 vapour pressure (mmHg): -9.8 | melting point: 144 °C

CCOC(=O)CCC(=O)OC
boiling point: 208 °C

OCCCCCCCCl
melting point: 11 °C

CNc1cccc2ccccc12
boiling point: 294 °C | melting point: 174 °C

CC(CCc1ccccc1)NCC(O)c1ccc(O)c(C(N)=O)c1 (centres undefined)
melting point: 188 °C

CC1=CCCC1=O
boiling point: 157 °C

CC(Br)CCCBr (centres undefined)
melting point: -34.4 °C

CC[Si](Cl)(Cl)CC
melting point: -96.5 °C

Cc1ccccn1
boiling point: 129 °C | log10 Henry constant (atm·m³/mol): -5 | log10 vapour pressure (mmHg): 1.05 | melting point: -66.7 °C | ready biodegradability: readily biodegradable

CCC(C)CCCC(C)CCCC(C)C (centres undefined)
log10 biotransformation half-life (days): 1.36

CCCCCCCCCCCC(=O)OC(C)C
log10 vapour pressure (mmHg): -2.57

O=[N+]([O-])c1c(O)cccc1O
melting point: 82 °C | ready biodegradability: readily biodegradable

CCC(=O)c1ccccc1
boiling point: 218 °C | log10 vapour pressure (mmHg): -0.77 | melting point: 18.6 °C | ready biodegradability: readily biodegradable

C[C@H]1C[C@@H](OC(=O)c2ccccc2)CC(C)(C)N1
melting point: 70.5 °C

Cc1cccc(CN)c1
boiling point: 204 °C

O=[N+]([O-])c1cc(S(=O)(=O)c2ccc(F)c([N+](=O)[O-])c2)ccc1F
melting point: 194 °C

Cc1cc(Br)cc(Br)c1O
melting point: 58 °C

CCCCCCCCc1ccccc1
boiling point: 264 °C | log10 vapour pressure (mmHg): -1.95 | melting point: -36 °C | log10 biotransformation half-life (days): 0.22

CCOC(=O)C#Cc1ccccc1
boiling point: 265 °C

COc1ccc2[nH]c(S(=O)Cc3ncc(C)c(OC)c3C)nc2c1 (centres undefined)
melting point: 156 °C

O=C(O)c1ccc(Cl)cc1Cl
melting point: 164 °C | ready biodegradability: not readily biodegradable

OCCCCCCCCCCO
melting point: 74 °C

O=C(c1ccc(O)cc1O)c1ccc(O)cc1O
melting point: 202 °C

O=C(O)c1ccccc1C1c2ccc(O)cc2Oc2cc(O)ccc21
melting point: 126 °C

CON(C)C(=O)Nc1ccc(Br)cc1
log10 Koc (L/kg): 2.1 | log10 vapour pressure (mmHg): -5.52 | melting point: 95 °C

CCN(CC)c1c([N+](=O)[O-])cc(C(F)(F)F)c(N)c1[N+](=O)[O-]
log10 Koc (L/kg): 3.63 | log10 vapour pressure (mmHg): -5.44 | melting point: 98 °C

CN(CCO)CCO
boiling point: 247 °C | log10 vapour pressure (mmHg): -3.7 | melting point: -21 °C | ready biodegradability: not readily biodegradable

OC[C@H]1O[C@@](CO)(O[C@H]2O[C@H](CO)[C@@H](O)[C@H](O)[C@H]2O)[C@@H](O[C@H]2O[C@H](CO)[C@@H](O)[C@H](O)[C@H]2O)[C@@H]1O
melting point: 153 °C

CCCCOC(=O)c1ccccc1C(=O)O
melting point: 73.5 °C

Clc1ccc(I)cc1
boiling point: 227 °C | log10 vapour pressure (mmHg): -1.23 | melting point: 57 °C

CC(O)COCc1c(Cl)ccc(Cl)c1Cl (centres undefined)
log10 vapour pressure (mmHg): -4

Cc1cc(C)c(C)s1
boiling point: 164 °C

COc1cc(CC#N)ccc1O
melting point: 56.5 °C

CC(=O)CC(C)C(C)=O (centres undefined)
boiling point: 196 °C

CCCCCCCCCl
boiling point: 182 °C | log10 vapour pressure (mmHg): -0.0223 | melting point: -57.8 °C | ready biodegradability: readily biodegradable

COc1ccc(-c2cc(=O)c3c(O)c(OC)c(O)cc3o2)cc1
melting point: 221 °C

COCCCNc1nc(NCCCOC)nc(SC)n1
melting point: 55 °C

C=C(C)C(=O)NCO
melting point: -37 °C

Cc1ccc(CC(C)C)cc1
boiling point: 196 °C

Cc1c2ccccc2c(C)c2c1ccc1ccccc12
log10 Koc (L/kg): 5.37 | melting point: 122 °C

N#CI
melting point: 147 °C

CC(C)(C)C(=O)OCC(=O)[C@@]1(O)CC[C@H]2[C@@H]3CCC4=CC(=O)C=C[C@]4(C)[C@H]3[C@@H](O)C[C@@]21C
melting point: 233 °C

OCCCc1ccncc1
boiling point: 289 °C | melting point: 37 °C

COc1c(C)cccc1C
boiling point: 182 °C

ClC1=C(Cl)C2(Cl)C3CC(Cl)(Cl)CC3C1(Cl)C2(Cl)Cl (centres undefined)
log10 BCF: 4.3 | log10 biotransformation half-life (days): 2.23

Cc1ccc2ccccc2c1[N+](=O)[O-]
melting point: 81.5 °C

CCCCN(CCCC)N=O
log10 vapour pressure (mmHg): -1.33

CCc1cnccn1
boiling point: 152 °C | log10 Henry constant (atm·m³/mol): -5.61

Reference: the OPERA property sets (Mansouri et al. 2018)
